Data: ChEMBL document CHEMBL6103649, “Optimization of Cyclophilin B-Targeted Tri-vector Inhibitors for Novel MASH Treatments” (J Med Chem, 2025)
Activity calls are given as the source filed them. The rule behind the calls is not given here.

How the values were obtained:
Hepatocyte [1] = experiment: Anti-MASH activity in fatty acid induced human iPSC derived Hepatocyte assessed as reduction in lipid level in hepatocyte at 10 uM measured after 48 hrs; format: functional, cell-based
Hepatocyte [2] = experiment: Anti-MASH activity in fatty acid induced human iPSC derived Hepatocyte assessed as reduction in lipid droplet size in hepatocyte at 10 uM measured after 48 hrs; format: functional, cell-based
[3] = Metabolic stability in human liver microsomes assessed as clearance; format: ADME, Microsome
[4] = Mutagenicity in Salmonella typhimurium TA98 at 5 to 100 mM incubated for 96 hrs in absence of rat liver s9 microsomes by Ames test; format: toxicity; details: salmonella enterica subsp. enterica serovar typhimurium, 100000 µM, dose 5-100 mM
[5] = Mutagenicity in Salmonella typhimurium TA98 at 5 to 100 mM incubated for 96 hrs in presence of rat liver s9 microsomes by Ames test; format: toxicity, Microsome; details: salmonella enterica subsp. enterica serovar typhimurium, 100000 µM, dose 5-100 mM
[6] = Mutagenicity in Salmonella typhimurium TA100 at 5 to 100 mM incubated for 96 hrs in absence of rat liver s9 microsomes by Ames test; format: toxicity; details: salmonella enterica subsp. enterica serovar typhimurium, 100000 µM, dose 5-100 mM
[7] = Mutagenicity in Salmonella typhimurium TA100 at 5 to 100 mM incubated for 96 hrs in presence of rat liver s9 microsomes by Ames test; format: toxicity, Microsome; details: salmonella enterica subsp. enterica serovar typhimurium, 100000 µM, dose 5-100 mM
[8] = Mutagenicity in Salmonella typhimurium TA1535 at 5 to 100 mM incubated for 96 hrs in absence of rat liver s9 microsomes by Ames test; format: toxicity; details: salmonella enterica subsp. enterica serovar typhimurium, 100000 µM, dose 5-100 mM
[9] = Mutagenicity in Salmonella typhimurium TA1535 at 5 to 100 mM incubated for 96 hrs in presence of rat liver s9 microsomes by Ames test; format: toxicity, Microsome; details: salmonella enterica subsp. enterica serovar typhimurium, 100000 µM, dose 5-100 mM
[10] = Mutagenicity in Salmonella typhimurium TA1537 at 5 to 100 mM incubated for 96 hrs in absence of rat liver s9 microsomes by Ames test; format: toxicity; details: salmonella enterica subsp. enterica serovar typhimurium, 100000 µM, dose 5-100 mM
[11] = Mutagenicity in Salmonella typhimurium TA1537 at 5 to 100 mM incubated for 96 hrs in presence of rat liver s9 microsomes by Ames test; format: toxicity, Microsome; details: salmonella enterica subsp. enterica serovar typhimurium, 100000 µM, dose 5-100 mM
in vitro = details: human, Caco-2
Description: Apparent permeability of the compound in human Caco-2 cells across apical to basolateral side

Row | CLH [3] | Papp A→B (in vitro) | Structure (SMILES) | Activity (Hepatocyte [1]) | Activity (Hepatocyte [2]) | Activity [4] | Activity [5] | Activity [6] | Activity [7] | Activity [8] | Activity [9] | Activity [10] | Activity [11]
1 | – | – | CC(C)c1cc(Oc2c(Cl)cc(-n3nc(C#N)c(=O)[nH]c3=O)cc2Cl)n[nH]c1=O | Active | Active | – | – | – | – | – | – | – | –
2 | 60 µL/min/mg | 0.8 ×10⁻⁶ cm/s | CSc1ccccc1[C@H]1CCCN1C(=O)CNC(=O)N(Cc1cnc(N)nc1)Cc1ncc(C)s1 | – | – | Non-toxic | Non-toxic | Non-toxic | Non-toxic | Non-toxic | Non-toxic | Non-toxic | Non-toxic
3 | – | 5 ×10⁻⁶ cm/s | CSc1ccccc1[C@H]1CCCN1C(=O)CNC(=O)N(Cc1ccc(N)c(Cl)c1)Cc1nnn(C)n1 | Active | Active | Non-toxic | Non-toxic | Non-toxic | Non-toxic | Non-toxic | Non-toxic | Non-toxic | Non-toxic
4 | – | 6.6 ×10⁻⁶ cm/s | Cn1nnc(CN(Cc2ccc(N)c(Cl)c2)C(=O)NCC(=O)N2CCC[C@@H]2c2ccccc2Br)n1 | – | – | Non-toxic | Non-toxic | Non-toxic | Non-toxic | Non-toxic | Non-toxic | Non-toxic | Non-toxic
